From patent publication US20230053540A1, “TREATMENT OF LIVER INJURY” (Massachusetts Institute of Technology, priority 2019, published 2023)

Test system: hepatocytes
Assay: Seq-Well scRNA-Seq of hepatocytes after APAP overdose (signature scores, DEG vs untreated)
Assay type: in vivo, mouse

CC(=O)Nc1ccc(O)cc1 [APAP, acetaminophen]
S100a9 pct.1 (A6): 0.399
Saa4 pct.1 (A6): 0.437
Sat1 pct.1 (A6): 0.47
Scp2 pct.1 (A6): 0.866
Sdc4 pct.1 (A6): 0.909
Sec1412 pct.1 (A6): 0.484
Selenbp2 pct.1 (A6): 0.609
Serpina1a pct.1 (A6): 0.914
Serpina3m pct.1 (A6): 0.85
Serpina3n pct.1 (A6): 0.747
Slc16a6 pct.1 (A6): 0.47
Slc22a1 pct.1 (A6): 0.36
Slc25a47 pct.1 (A6): 0.869
Slc39a14 pct.1 (A6): 0.678
Sod1 pct.1 (A6): 0.931
Sqstm1 pct.1 (A6): 0.859
Srgn pct.1 (A6): 0.284
Srxn1 pct.1 (A6): 0.821
St3gal1 pct.1 (A6): 0.473
St3gal5 pct.1 (A6): 0.706
Stat3 pct.1 (A6): 0.604
Stk40 pct.1 (A6): 0.382
Tiparp pct.1 (A6): 0.346
Tmem205 pct.1 (A6): 0.695
Tmsb4x pct.1 (A6): 0.332
Tnfrsf1a pct.1 (A6): 0.508
Tnfrsf12a pct.1 (A6): 0.623
Tra2a pct.1 (A6): 0.337
Trp53inp1 pct.1 (A6): 0.637
Ttc36 pct.1 (A6): 0.768
Ttr pct.1 (A6): 0.993
Tubb2a pct.1 (A6): 0.618
Tubb6 pct.1 (A6): 0.368
Txnrd1 pct.1 (A6): 0.838
Tyrobp pct.1 (A6): 0.189
Ubc pct.1 (A6): 0.573
Ugdh pct.1 (A6): 0.721
Ugt2b5 pct.1 (A6): 0.847
Ugt2b36 pct.1 (A6): 0.745
Uox pct.1 (A6): 0.905
Upp2 pct.1 (A6): 0.274
Uqcr11 pct.1 (A6): 0.606
Urah pct.1 (A6): 0.525
Wbp1l pct.1 (A6): 0.697
Xbp1 pct.1 (A6): 0.692
Ywhag pct.1 (A6): 0.518
mmu-mir-6240 pct.1 (A6): 0.413
mt-Co2 pct.1 (A6): 0.2
mt-Nd1 pct.1 (A6): 0.983
mt-Nd4 pct.1 (A6): 0.964
n-R5-8s1 pct.1 (A6): 0.308
2-Mar avg_logFC (A6 vs UT): −0.5599
0610005C13Rik avg_logFC (A6 vs UT): −0.4251
0610005C13Rik pct.1 (A6 vs UT): 0.427
0610007P14Rik A6logFC (A6 vs UT): −0.257
1110001J03Rik avg_logFC (A6 vs UT): −0.4328
1110001J03Rik pct.1 (A6 vs UT): 0.215
1110058L19Rik A6logFC (A6 vs UT): −0.2581
1500011K16Rik avg_logFC (A6 vs UT): −0.3296
1500011K16Rik pct.1 (A6 vs UT): 0.095
1600014C10Rik avg_logFC (A6 vs UT): −0.4982
1600014C10Rik pct.1 (A6 vs UT): 0.167
1700017B05Rik avg_logFC (A6 vs UT): 0.3307
1700017B05Rik pct.1 (A6 vs UT): 0.255
2010003K11Rik avg_logFC (A6 vs UT): 0.5884
2410015M20Rik avg_logFC (A6 vs UT): −0.4021
2410015M20Rik pct.1 (A6 vs UT): 0.344
2810007J24Rik avg_logFC (A6 vs UT): −0.9143
2810428I15Rik avg_logFC (A6 vs UT): −0.2631
2810428I15Rik pct.1 (A6 vs UT): 0.2
4931406C07Rik A6logFC (A6 vs UT): −0.2544
4931406C07Rik avg_logFC (A6 vs UT): −0.2544
4931406C07Rik pct.1 (A6 vs UT): 0.616
4932438A13Rik A6logFC (A6 vs UT): 0.2879
4932438A13Rik avg_logFC (A6 vs UT): 0.2879
4932438A13Rik pct.1 (A6 vs UT): 0.329
8430408G22Rik avg_logFC (A6 vs UT): −0.5021
2810428115Rik A6logFC (A6 vs UT): −0.2631
Aadac avg_logFC (A6 vs UT): −0.62
Aadat A6logFC (A6 vs UT): −0.3186
Aass avg_logFC (A6 vs UT): 0.4775
Abca1 avg_logFC (A6 vs UT): 0.7245
Abcb11 A6logFC (A6 vs UT): −0.2618
Abcb11 avg_logFC (A6 vs UT): −0.2618
Abcb11 pct.1 (A6 vs UT): 0.618
Abcc2 A6logFC (A6 vs UT): 0.2897
Abcd3 A6logFC (A6 vs UT): −0.2718
Abce1 A6logFC (A6 vs UT): 0.28
Abce1 avg_logFC (A6 vs UT): 0.28
Abce1 pct.1 (A6 vs UT): 0.437
Abcf1 A6logFC (A6 vs UT): 0.3032
Abcf1 avg_logFC (A6 vs UT): 0.3032
Abcf1 pct.1 (A6 vs UT): 0.458
Abcg2 A6logFC (A6 vs UT): −0.2809
Abcg2 avg_logFC (A6 vs UT): −0.2809
Abcg2 pct.1 (A6 vs UT): 0.294
Abhd2 avg_logFC (A6 vs UT): 0.4844
Acaa1a A6logFC (A6 vs UT): −0.3018
Acaa1a avg_logFC (A6 vs UT): −0.3018
Acaa1a pct.1 (A6 vs UT): 0.475
Acaa1b avg_logFC (A6 vs UT): −0.7328
Acads A6logFC (A6 vs UT): −0.3242
Acat3 A6logFC (A6 vs UT): −0.3115
Acat3 avg_logFC (A6 vs UT): −0.3115
Acat3 pct.1 (A6 vs UT): 0.427
Acot13 A6logFC (A6 vs UT): −0.2886
Acsl1 avg_logFC (A6 vs UT): −0.3434
Acsl1 pct.1 (A6 vs UT): 0.752
Acsl4 avg_logFC (A6 vs UT): 0.2985
Acsl4 pct.1 (A6 vs UT): 0.427
Acsm1 avg_logFC (A6 vs UT): −0.3692
Acsm1 pct.1 (A6 vs UT): 0.527
Acsm5 A6logFC (A6 vs UT): −0.2614
Acsm5 avg_logFC (A6 vs UT): −0.2614
Acsm5 pct.1 (A6 vs UT): 0.236
Actr3 A6logFC (A6 vs UT): 0.276
Actr3 avg_logFC (A6 vs UT): 0.276
Actr3 pct.1 (A6 vs UT): 0.36
Acy3 avg_logFC (A6 vs UT): −0.3137
Acy3 pct.1 (A6 vs UT): 0.131
Adamts1 avg_logFC (A6 vs UT): 0.2826
Adamts1 pct.1 (A6 vs UT): 0.2
Adck3 avg_logFC (A6 vs UT): −0.8761
Adh1 avg_logFC (A6 vs UT): −1.255
Adh4 avg_logFC (A6 vs UT): −0.5269
Adh5 avg_logFC (A6 vs UT): −0.4914
Adh5 pct.1 (A6 vs UT): 0.649
Adipor2 avg_logFC (A6 vs UT): −0.4738
Adipor2 pct.1 (A6 vs UT): 0.578
Aes A6logFC (A6 vs UT): −0.2642
Aes avg_logFC (A6 vs UT): −0.2642
Aes pct.1 (A6 vs UT): 0.535
Aff4 avg_logFC (A6 vs UT): 0.6163
Aff4 pct.1 (A6 vs UT): 0.537
Agmat avg_logFC (A6 vs UT): −0.4718
Agmat pct.1 (A6 vs UT): 0.339
Agpat2 A6logFC (A6 vs UT): −0.2982
Agpat9 avg_logFC (A6 vs UT): 0.327
Agxt A6logFC (A6 vs UT): −0.2584
Agxt avg_logFC (A6 vs UT): −0.2584
Agxt pct.1 (A6 vs UT): 0.601
Akap13 avg_logFC (A6 vs UT): 0.4953
Akap13 pct.1 (A6 vs UT): 0.406
Akr1c6 avg_logFC (A6 vs UT): −1.586
Akr1c14 avg_logFC (A6 vs UT): −0.5186
Akr1c14 pct.1 (A6 vs UT): 0.413
Akr1c20 avg_logFC (A6 vs UT): −0.5542
Akr1d1 avg_logFC (A6 vs UT): −0.2789
Akr1d1 pct.1 (A6 vs UT): 0.332
Akr1e1 A6logFC (A6 vs UT): −0.2582
Alad avg_logFC (A6 vs UT): −0.4206
Alad pct.1 (A6 vs UT): 0.286
Alb avg_logFC (A6 vs UT): 0.4203
Alcam A6logFC (A6 vs UT): 0.3238
Alcam avg_logFC (A6 vs UT): 0.3238
Alcam pct.1 (A6 vs UT): 0.396
Aldh1a1 avg_logFC (A6 vs UT): −0.4788
Aldh3a2 avg_logFC (A6 vs UT): −0.8342
Aldh4a1 A6logFC (A6 vs UT): −0.2907
Aldh4a1 avg_logFC (A6 vs UT): −0.2907
Aldh4a1 pct.1 (A6 vs UT): 0.425
Aldh8a1 avg_logFC (A6 vs UT): −0.6837
Aldob avg_logFC (A6 vs UT): 0.3153
Aldob pct.1 (A6 vs UT): 0.998
Amacr avg_logFC (A6 vs UT): −0.4136
Amacr pct.1 (A6 vs UT): 0.294
Anapc13 A6logFC (A6 vs UT): −0.3642
Ang avg_logFC (A6 vs UT): −0.6629
Anxa5 A6logFC (A6 vs UT): 0.3654
Apoa2 avg_logFC (A6 vs UT): −0.5428
Apoa4 avg_logFC (A6 vs UT): 1.368
Apob avg_logFC (A6 vs UT): 0.5802
Apobec1 avg_logFC (A6 vs UT): 0.3051
Apobec1 pct.1 (A6 vs UT): 0.239
Apoc1 avg_logFC (A6 vs UT): −0.8713
Apoc3 avg_logFC (A6 vs UT): −0.7688
Apoe avg_logFC (A6 vs UT): −0.369
Apof A6logFC (A6 vs UT): −0.2522
Apof avg_logFC (A6 vs UT): −0.2522
Apof pct.1 (A6 vs UT): 0.759
Apoh avg_logFC (A6 vs UT): −0.2623
Apoh pct.1 (A6 vs UT): 0.924
Apol7a avg_logFC (A6 vs UT): −0.4923
App avg_logFC (A6 vs UT): 0.3618
App pct.1 (A6 vs UT): 0.315
Aqp9 A6logFC (A6 vs UT): −0.3109
Arg1 avg_logFC (A6 vs UT): 0.3179
Arg1 pct.1 (A6 vs UT): 0.983
Arhgap5 avg_logFC (A6 vs UT): 0.264
Arhgap5 pct.1 (A6 vs UT): 0.506
Arhgdia A6logFC (A6 vs UT): 0.2563
Arhgdia avg_logFC (A6 vs UT): 0.2563
Arhgdia pct.1 (A6 vs UT): 0.317
Arhgef12 avg_logFC (A6 vs UT): 0.5908
Arl4d avg_logFC (A6 vs UT): −0.5072
Arpc1b A6logFC (A6 vs UT): 0.2597
Arpc1b avg_logFC (A6 vs UT): 0.2597
Arpc1b pct.1 (A6 vs UT): 0.263
Asgr1 avg_logFC (A6 vs UT): −0.3857
Asgr1 pct.1 (A6 vs UT): 0.656
Ash1l avg_logFC (A6 vs UT): 0.2657
Ash1l pct.1 (A6 vs UT): 0.301
